Results published in patent US20050009776A1, “Method of treating atrial fibrillation or atrial flutter” (Aderis Pharmaceuticals, Inc., priority 2003, published 2005).
Marks after values point to notes of the source that are not given here.

What was measured:
[1] = tested on: patients with atrial fibrillation; assay: Example 4: placebo-controlled 15-minute i.v. infusion, heart rate and blood pressure in atrial fibrillation; type: in vivo, human
Experimental: A double blind, placebo-controlled study was designed to establish the i.v. dose range of DTI-0009 that safely reduces heart rates in patients with atrial fibrillation. […] The patients' heart rates and blood pressures were measured periodically throughout the treatment period and for 75 and 80 minutes post-infusion, respectively. Safety assessments were made throughout the study and for up to three to seven days post-dose.

[2] = tested on: atrioventricular (AV) node; assay: Example 3: Phase I dose escalation, effects on AV node function; type: in vivo, human
Experimental: This study for determining the effects of DTI-0009 on atrioventricular (AV) node function enrolled 63 patients (19 women and 44 men; mean age 54) who were scheduled for a procedure other than AV node or slow pathway ablation. All patients had no greater than a first degree AV block and AV node Wenckebach Cycle Length of less than 500 msec. […] The study was a Phase I, multi-center, open-label, sequential dose escalation using DTI-0009 (0.25 μg/kg, 1.0 μg/kg, 2.5 μg/kg, 4.0 μg/kg, 10.0 μg/kg, and 25.0 μg/kg) or normal saline. Electrophysiologic studies (EPS) were performed at baseline, during infusion (20-30 min) and 10 minutes after discontinuation of DTI-0009 administration.

With `CCNC(=O)[C@H]1O[C@@H](n2cnc3c(NC4CCCC4)ncnc32)[C@H](O)[C@@H]1O` [DTI-0009, N^6-cyclopentyl-5′-(N-ethyl)carboxamidoadenosine] the DBP ([1]; 2 μg/kg (11 patients), 30 minutes after start of infusion (BP 35 minutes, footnote c), Baseline 82.2) was 77.8^e mmHg, the SBP ([1]; 2 μg/kg (11 patients), 30 minutes after start of infusion (BP 35 minutes, footnote c), Baseline 130.7) was 129.5^e mmHg and the DBP ([1]; 2 μg/kg (n = 12), 5 minutes after start of infusion, Baseline 82.2) was 87.7 mmHg. The HR ([1]; 2 μg/kg (n = 12), 5 minutes after start of infusion, Baseline 129.9) was 117.1^a bpm, the SBP ([1]; 2 μg/kg (n = 12), 5 minutes after start of infusion, Baseline 130.7) was 136.6 mmHg and the DBP ([1]; 2 μg/kg (n = 12), 15 minutes after start of infusion, Baseline 82.2) was 84.6 mmHg. The HR ([1]; 2 μg/kg (n = 12), 15 minutes after start of infusion, Baseline 129.9) was 102.4^b bpm, the SBP ([1]; 2 μg/kg (n = 12), 15 minutes after start of infusion, Baseline 130.7) was 134.4 mmHg and the HR ([1]; 2 μg/kg (n = 12), 30 minutes after start of infusion, Baseline 129.9) was 112.1^a bpm. For the same compound, the HR ([1]; 4 μg/kg (8 patients), 30 minutes after start of infusion, Baseline 143.9) was 115.1^a,d bpm, the DBP ([1]; 4 μg/kg (n = 9), 5 minutes after start of infusion, Baseline 75.0) was 76.3 mmHg and the SBP ([1]; 4 μg/kg (n = 9), 5 minutes after start of infusion, Baseline 132.1) was 127.4 mmHg. For the same compound, the HR ([1]; 4 μg/kg (n = 9), 5 minutes after start of infusion, Baseline 143.9) was 114.9^a bpm, the DBP ([1]; 4 μg/kg (n = 9), 15 minutes after start of infusion, Baseline 75.0) was 68.7 mmHg and the SBP ([1]; 4 μg/kg (n = 9), 15 minutes after start of infusion, Baseline 132.1) was 132.8 mmHg. The HR ([1]; 4 μg/kg (n = 9), 15 minutes after start of infusion, Baseline 143.9) was 100.1^b bpm, the DBP ([1]; 4 μg/kg (n = 9), 30 minutes after start of infusion (BP 35 minutes, footnote c), Baseline 75.0) was 72.2 mmHg and the SBP ([1]; 4 μg/kg (n = 9), 30 minutes after start of infusion (BP 35 minutes, footnote c), Baseline 132.1) was 122.0 mmHg. The DBP ([1]; 6 μg/kg (n = 9), 5 minutes after start of infusion, Baseline 69.4) was 72.9 mmHg, the SBP ([1]; 6 μg/kg (n = 9), 5 minutes after start of infusion, Baseline 122.1) was 126.8 mmHg and the HR ([1]; 6 μg/kg (n = 9), 5 minutes after start of infusion, Baseline 140.2) was 117.1^a bpm. The DBP ([1]; 6 μg/kg (n = 9), 15 minutes after start of infusion, Baseline 69.4) was 70.4 mmHg, the SBP ([1]; 6 μg/kg (n = 9), 15 minutes after start of infusion, Baseline 122.1) was 126.8 mmHg and the HR ([1]; 6 μg/kg (n = 9), 15 minutes after start of infusion, Baseline 140.2) was 100.4^b bpm. The DBP ([1]; 6 μg/kg (n = 9), 30 minutes after start of infusion (BP 35 minutes, footnote c), Baseline 69.4) was 68.7 mmHg, the SBP ([1]; 6 μg/kg (n = 9), 30 minutes after start of infusion (BP 35 minutes, footnote c), Baseline 122.1) was 115.4 mmHg and the HR ([1]; 6 μg/kg (n = 9), 30 minutes after start of infusion, Baseline 140.2) was 114.4^a bpm. The DBP ([1]; 8 μg/kg (n = 7), 5 minutes after start of infusion, Baseline 82.3) was 85.1 mmHg, the SBP ([1]; 8 μg/kg (n = 7), 5 minutes after start of infusion, Baseline 131.6) was 141.4 mmHg and the HR ([1]; 8 μg/kg (n = 7), 5 minutes after start of infusion, Baseline 133.7) was 101.4^a bpm. For the same compound, the DBP ([1]; 8 μg/kg (n = 7), 15 minutes after start of infusion, Baseline 82.3) was 80.3 mmHg, the SBP ([1]; 8 μg/kg (n = 7), 15 minutes after start of infusion, Baseline 131.6) was 145.3 mmHg and the HR ([1]; 8 μg/kg (n = 7), 15 minutes after start of infusion, Baseline 133.7) was 90.9^a bpm. The DBP ([1]; 8 μg/kg (n = 7), 30 minutes after start of infusion (BP 35 minutes, footnote c), Baseline 82.3) was 77.4 mmHg, the SBP ([1]; 8 μg/kg (n = 7), 30 minutes after start of infusion (BP 35 minutes, footnote c), Baseline 131.6) was 134.4 mmHg and the HR ([1]; 8 μg/kg (n = 7), 30 minutes after start of infusion, Baseline 133.7) was 96.3^a bpm. The DBP ([1]; 10 μg/kg (n = 8), 5 minutes after start of infusion, Baseline 75.9) was 83.1 mmHg, the SBP ([1]; 10 μg/kg (n = 8), 5 minutes after start of infusion, Baseline 128.3) was 140.6 mmHg and the HR ([1]; 10 μg/kg (n = 8), 5 minutes after start of infusion, Baseline 142.5) was 110.0^b bpm. For the same compound, the DBP ([1]; 10 μg/kg (n = 8), 15 minutes after start of infusion, Baseline 75.9) was 73.0 mmHg, the SBP ([1]; 10 μg/kg (n = 8), 15 minutes after start of infusion, Baseline 128.3) was 125.8 mmHg and the HR ([1]; 10 μg/kg (n = 8), 15 minutes after start of infusion, Baseline 142.5) was 95.4^a bpm. For the same compound, the DBP ([1]; 10 μg/kg (n = 8), 30 minutes after start of infusion (BP 35 minutes, footnote c), Baseline 75.9) was 71.3 mmHg, the SBP ([1]; 10 μg/kg (n = 8), 30 minutes after start of infusion (BP 35 minutes, footnote c), Baseline 128.3) was 126.1 mmHg and the HR ([1]; 10 μg/kg (n = 8), 30 minutes after start of infusion, Baseline 142.5) was 104.6^a bpm. For the same compound, the DBP ([1]; 12 μg/kg (n = 4), 5 minutes after start of infusion, Baseline 80.5) was 82.5 mmHg, the SBP ([1]; 12 μg/kg (n = 4), 5 minutes after start of infusion, Baseline 119.5) was 131.5 mmHg and the HR ([1]; 12 μg/kg (n = 4), 5 minutes after start of infusion, Baseline 120.0) was 82.0^a bpm. For the same compound, the DBP ([1]; 12 μg/kg (n = 4), 15 minutes after start of infusion, Baseline 80.5) was 78.5 mmHg, the SBP ([1]; 12 μg/kg (n = 4), 15 minutes after start of infusion, Baseline 119.5) was 122.5 mmHg and the HR ([1]; 12 μg/kg (n = 4), 15 minutes after start of infusion, Baseline 120.0) was 74.5^a bpm. The DBP ([1]; 12 μg/kg (n = 4), 30 minutes after start of infusion (BP 35 minutes, footnote c), Baseline 80.5) was 68.5^a mmHg, the SBP ([1]; 12 μg/kg (n = 4), 30 minutes after start of infusion (BP 35 minutes, footnote c), Baseline 119.5) was 118.5 mmHg and the HR ([1]; 12 μg/kg (n = 4), 30 minutes after start of infusion, Baseline 120.0) was 88.0^a bpm. For the same compound, the “changes in systolic or diastolic blood pressures” value ([1]; any treatment group, infusion period and up to 80 minutes post-infusion) was “no clinically significant changes”, the “AERP Change from Baseline” value ([2]; 4.0 μg/kg (n = 9), ns) was “+10 msec (ns)” and the “AH Interval Change from Baseline” value ([2]; 4.0 μg/kg (n = 9), ns) was “+9 msec (ns)”. For the same compound, the “AVNERP Change from Baseline” value ([2]; 4.0 μg/kg (n = 9), ns) was “+73 msec (ns)”, the “Wenkebach Cycle Length Change from Baseline” value (from here on “Wenkebach Cycle Length Change”) ([2]; 4.0 μg/kg (n = 9), ns) was “+60 msec (ns)” and the “HR at 250 msec pacing Change from Baseline” value (from here on “HR at 250 msec pacing Change”) ([2]; 4.0 μg/kg (n = 9), p = 0.008) was −49 bpm. The “AVNERP Change from Baseline” value ([2]; 10.0 μg/kg (n = 8), p = 0.001) was “+248 msec”, the “HR at 250 msec pacing Change” value ([2]; 10.0 μg/kg (n = 8), p = 0.001) was −51 bpm and the “Wenkebach Cycle Length Change” value ([2]; 10.0 μg/kg (n = 8), p = 0.001) was “+198 msec”. For the same compound, the “AH Interval Change from Baseline” value ([2]; 10.0 μg/kg (n = 8), p = 0.004) was “+24 msec”, the “AERP Change from Baseline” value ([2]; 10.0 μg/kg (n = 8), p = 0.035) was -14 ms and the complete heart block ([2]; 10.0 μg/kg dose) was “occurred in one patient”. The “AERP Change from Baseline” value ([2]; 25.0 μg/kg (n = 2), ns) was “+10 msec (ns)”, the “AH Interval Change from Baseline” value ([2]; 25.0 μg/kg (n = 2), ns) was “+14 msec (ns)” and the “HR at 250 msec pacing Change” value ([2]; 25.0 μg/kg (n = 2), p = 0.004) was −45 bpm. For the same compound, the “AVNERP Change from Baseline” value ([2]; 25.0 μg/kg (n = 2), p = 0.013) was “+185 msec”, the “Wenkebach Cycle Length Change” value ([2]; 25.0 μg/kg (n = 2), p = 0.035) was “+140 msec” and the “transient, severe, non-ischemic chest pain reported as serious adverse events” value ([2]; 25.0 μg/kg, three patients dosed) was “two of these patients”. For the same compound, the “effects on AV node variables at low doses” value ([2]; doses up to 2.5 μg/kg) was “negligible effects” and the tolerability ([2]; up to a dose of 10.0 μg/kg) was “well tolerated”.
